# Measured values published in patent US20060166900A1, “Salt of morphine-6-glucuronide” (CeNeS Limited, priority 2002, published 2006).
# How the values were obtained:
# Format in all cases: physicochemical
# [1] = Stability of M6G salts at room temperature over 6 years, HPLC; settings: for Assay M6G corr.: content calculated as M6G derivative
# [2] = Visual appearance on storage (Example 3)
# Summary of the method: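 Aliquots (900 mg) kept at 2-8 °C beforehand were stored in argon-flushed brown opaque HDPE bottles at 25 °C/60% RH, 40 °C/75% RH and 60 °C. Visual appearance was assessed at set time points.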
# [3] = Water content by Karl Fisher analysis on storage (Example 3)
# Summary of the method: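 900 mg aliquots were held in argon-flushed brown opaque HDPE bottles at 25 °C/60% RH, 40 °C/75% RH and 60 °C. At each time point, water content (% w/w) was determined in duplicate on about 100 mg of equilibrated material by Karl Fischer titration.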
# [4] = Colour of solution by visible spectrophotometry on storage (Example 3); settings: 5% w/v solution in water
# Summary of the method: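 5% w/v aqueous solution, absorbance at 420 nm in a 1 cm silica cell. Samples were stored in argon-flushed brown opaque HDPE bottles at 25° C./60% RH, 40° C./75% RH and 60° C.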
# [5] = Stability indicating HPLC assay and related substances on storage (Example 3)
structure (smiles),measurement,setting,value
CN1CC[C@]23c4c5ccc(O)c4O[C@H]2[C@@H](O[C@@H]2O[C@H](C(=O)O)[C@@H](O)[C@H](O)[C@H]2O)C=C[C@H]3[C@H]1C5.Cl [Morphine-6-glucuronide hydrochloride],HN-33177,[1]; 0 years,0.3%
same,HN-75083,[1]; 0 years,<0.1%
same,Unknown related substances (sum area %),[1]; 0 years,<0.1 area %
same,Assay M6G corr.,[1]; 0 years,88.7%
same,HN-67002,[1]; 6 years at ambient temperature,1.3%
same,HN-67003,[1]; 6 years at ambient temperature,2.1%
same,Morphine,[1]; 6 years at ambient temperature,0.2%
same,Unknown related substances (sum area %),[1]; 6 years at ambient temperature,9.2 area %
same,Assay M6G corr.,[1]; 6 years at ambient temperature,74.8%
same,HN-33177,"[1]; 6 years at ambient temperature, hydrochloride",0.2%
same,HN-33177,"[1]; 6 years at ambient temperature, listed as M6G.HCl, hydrochloride",remained unchanged
same,peaks present in the chromatogram that cannot be identified by retention time,[1]; almost 6 years at room temperature,17
same,Appearance,"[2]; 1 month, 25° C./60% RH",White crystalline powder
same,Appearance,"[2]; 1 month, 40° C./75% RH",Slightly yellow crystalline powder
same,Appearance,"[2]; 1 month, 60° C.",Pale yellow crystalline powder
same,Appearance,"[2]; 3 months, 25° C./60% RH, hydrochloride",White crystalline powder
same,Appearance,"[2]; 3 months, 25° C./60% RH, listed as hydrochloride, hydrochloride",white crystalline solids
same,Appearance,"[2]; 3 months, 40° C./75% RH",Yellow crystalline powder
same,Appearance,[2]; Initial,White crystalline powder
same,Moisture,"[3]; 1 month, 25° C./60% RH",5.10 % w/w
same,Moisture,"[3]; 1 month, 40° C./75% RH",6.24 % w/w
same,Moisture,"[3]; 1 month, 60° C.",4.44 % w/w
same,Moisture,"[3]; 3 months, 25° C./60% RH",6.06 % w/w
same,Moisture,"[3]; 3 months, 40° C./75% RH",9.02 % w/w
same,Moisture,[3]; Initial,4.31 % w/w
same,Colour,"[4]; 1 month, 25° C./60% RH",0.147 Abs@420 nm
same,Colour,"[4]; 1 month, 40° C./75% RH",0.444 Abs@420 nm
same,Colour,"[4]; 1 month, 60° C.",1.183 Abs@420 nm
same,Colour,"[4]; 3 months, 25° C./60% RH",0.253 Abs@420 nm
same,Colour,"[4]; 3 months, 40° C./75% RH",2.107 Abs@420 nm
same,Colour,[4]; Initial,0.059 Abs@420 nm
same,Known Related Substances HN33177,"[5]; 1 month, 25° C./60% RH",0.63%
same,Known Related Substances HN67003,"[5]; 1 month, 25° C./60% RH",0.38%
same,Known Related Substances HN75076,"[5]; 1 month, 25° C./60% RH",0.04%
same,Known Related Substances HN75083,"[5]; 1 month, 25° C./60% RH",0.03%
same,"M6G Assay, Anhydrous basis","[5]; 1 month, 25° C./60% RH",92.03 % w/w
same,"M6G Assay, As is basis","[5]; 1 month, 25° C./60% RH",79.21 % w/w
same,"M6G Assay, Corrected for the salt form","[5]; 1 month, 25° C./60% RH",99.30 % w/w
same,Total Known,"[5]; 1 month, 25° C./60% RH",1.08%
same,Total Related Substances,"[5]; 1 month, 25° C./60% RH",2.41%
same,Total Unknown,"[5]; 1 month, 25° C./60% RH",1.33%
same,Known Related Substances HN33177,"[5]; 1 month, 40° C./75% RH",0.41%
same,Known Related Substances HN67003,"[5]; 1 month, 40° C./75% RH",3.01%
same,Known Related Substances HN75076,"[5]; 1 month, 40° C./75% RH",0.34%
same,Known Related Substances HN75083,"[5]; 1 month, 40° C./75% RH",0.07%
same,Known Related Substances Morphine,"[5]; 1 month, 40° C./75% RH",0.08%
same,"M6G Assay, Anhydrous basis","[5]; 1 month, 40° C./75% RH",81.39 % w/w
same,"M6G Assay, As is basis","[5]; 1 month, 40° C./75% RH",69.13 % w/w
same,"M6G Assay, Corrected for the salt form","[5]; 1 month, 40° C./75% RH",87.81 % w/w
same,Total Known,"[5]; 1 month, 40° C./75% RH",3.91%
same,Total Related Substances,"[5]; 1 month, 40° C./75% RH",15.16%
same,Total Unknown,"[5]; 1 month, 40° C./75% RH",11.25%
same,Known Related Substances HN33177,"[5]; 1 month, 60° C.",0.12%
same,Known Related Substances HN67003,"[5]; 1 month, 60° C.",3.55%
same,Known Related Substances HN75076,"[5]; 1 month, 60° C.",0.55%
same,Known Related Substances HN75083,"[5]; 1 month, 60° C.",0.03%
same,Known Related Substances Morphine,"[5]; 1 month, 60° C.",0.46%
same,"M6G Assay, Anhydrous basis","[5]; 1 month, 60° C.",75.78 % w/w
same,"M6G Assay, As is basis","[5]; 1 month, 60° C.",65.73 % w/w
same,"M6G Assay, Corrected for the salt form","[5]; 1 month, 60° C.",81.76 % w/w
same,Total Known,"[5]; 1 month, 60° C.",4.71%
same,Total Related Substances,"[5]; 1 month, 60° C.",20.94%
same,Total Unknown,"[5]; 1 month, 60° C.",16.23%
same,Known Related Substances HN33177,"[5]; 3 months, 25° C./60% RH",0.50%
same,Known Related Substances HN67003,"[5]; 3 months, 25° C./60% RH",1.31%
same,Known Related Substances HN75083,"[5]; 3 months, 25° C./60% RH",0.03%
same,Known Related Substances Morphine,"[5]; 3 months, 25° C./60% RH",0.21%
same,"M6G Assay, Anhydrous basis","[5]; 3 months, 25° C./60% RH",87.71 % w/w
same,"M6G Assay, As is basis","[5]; 3 months, 25° C./60% RH",75.48 % w/w
same,"M6G Assay, Corrected for the salt form","[5]; 3 months, 25° C./60% RH",94.64 % w/w
same,Total Known,"[5]; 3 months, 25° C./60% RH",2.05%
same,Total Related Substances,"[5]; 3 months, 25° C./60% RH",9.52%
same,Total Unknown,"[5]; 3 months, 25° C./60% RH",7.47%
same,decrease in assay compared to initial,"[5]; 3 months, 25° C./60% RH",around 6%
same,Known Related Substances HN33177,"[5]; 3 months, 40° C./75% RH",0.07%
same,Known Related Substances HN67003,"[5]; 3 months, 40° C./75% RH",3.71%
same,Known Related Substances HN75076,"[5]; 3 months, 40° C./75% RH",1.67%
same,Known Related Substances HN75083,"[5]; 3 months, 40° C./75% RH",0.01%
same,Known Related Substances Morphine,"[5]; 3 months, 40° C./75% RH",1.55%
same,"M6G Assay, Anhydrous basis","[5]; 3 months, 40° C./75% RH",61.41 % w/w
same,"M6G Assay, As is basis","[5]; 3 months, 40° C./75% RH",51.00 % w/w
same,"M6G Assay, Corrected for the salt form","[5]; 3 months, 40° C./75% RH",66.26 % w/w
same,Total Known,"[5]; 3 months, 40° C./75% RH",7.01%
same,Total Unknown,"[5]; 3 months, 40° C./75% RH",51.57%
same,drop in assay compared to the initial values,"[5]; 3 months, 40° C./75% RH",approx 34%
same,Total Related Substances,"[5]; 3 months, 40° C./75% RH, hydrochloride",58.58%
same,Total Related Substances,"[5]; 3 months, 40° C./75% RH, listed as hydrochloride, hydrochloride",around 54.5%
same,stability assessment,[5]; 40° C./75% RH over 3 months (base also 60° C. over 1 month),least stable
same,Known Related Substances HN33177,[5]; Initial,0.63%
same,Known Related Substances HN67003,[5]; Initial,0.07%
same,Known Related Substances HN75076,[5]; Initial,0.01%
same,Known Related Substances HN75083,[5]; Initial,0.06%
same,"M6G Assay, Anhydrous basis",[5]; Initial,93.28 % w/w
same,"M6G Assay, As is basis",[5]; Initial,81.63 % w/w
same,"M6G Assay, Corrected for the salt form",[5]; Initial,100.65 % w/w
same,Total Known,[5]; Initial,0.77%
same,Total Related Substances,[5]; Initial,1.24%
same,Total Unknown,[5]; Initial,0.47%
same,overall stability comparison,[5]; overall review of Example 3 data,least stable
